{
  "source": "paper PMC9719519",
  "about": "“Non-classical ferroptosis inhibition by a small molecule targeting PHB2” (Nature Communications, 2022)",
  "assay_in_all_cases": "biochemical",
  "set-up_in_all_cases": "Eurofins recombinant human kinase profiling, remaining kinase activity as % of control, 10 uM ATP",
  "conditions_in_all_cases": "ATP 10 uM; read-out: %Ctrl@10 μM",
  "key": {"Rsk1(h)": {"target": "T1, Rsk1(h) (Homo sapiens, UniProt Q15418)", "T1 construct": "gene RPS6KA1", "outline": "(§1)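 Activity measured in a commercial panel of 401 recombinant human protein kinases run as a kinase profiling service.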"}, "CaMKK1(h)": {"target": "CaMKK1(h) (Homo sapiens, UniProt Q8N5S9)", "sequence (Q8N5S9 whole entry)": "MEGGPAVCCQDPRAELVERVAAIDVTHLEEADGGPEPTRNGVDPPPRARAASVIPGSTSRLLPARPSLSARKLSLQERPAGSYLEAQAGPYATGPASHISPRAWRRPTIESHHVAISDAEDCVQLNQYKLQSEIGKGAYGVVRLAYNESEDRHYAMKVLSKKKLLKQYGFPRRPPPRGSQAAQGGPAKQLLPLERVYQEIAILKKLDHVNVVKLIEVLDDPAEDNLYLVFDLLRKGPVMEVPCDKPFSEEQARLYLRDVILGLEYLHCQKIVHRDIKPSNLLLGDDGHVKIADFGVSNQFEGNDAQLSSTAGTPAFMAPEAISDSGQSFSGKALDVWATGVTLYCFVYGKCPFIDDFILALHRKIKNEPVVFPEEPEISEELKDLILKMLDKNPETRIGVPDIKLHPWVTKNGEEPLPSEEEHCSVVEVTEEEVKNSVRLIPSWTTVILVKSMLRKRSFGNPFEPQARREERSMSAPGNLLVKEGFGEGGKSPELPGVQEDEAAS", "outline": "as §1"}, "DRAK2(h)": {"target": "T2, DRAK2(h) (Homo sapiens, UniProt O94768)", "T2 construct": "gene STK17B", "outline": "as §1"}, "BMPR2(h)": {"target": "BMPR2(h) (Homo sapiens, UniProt Q13873)", "sequence (Q13873 whole entry)": "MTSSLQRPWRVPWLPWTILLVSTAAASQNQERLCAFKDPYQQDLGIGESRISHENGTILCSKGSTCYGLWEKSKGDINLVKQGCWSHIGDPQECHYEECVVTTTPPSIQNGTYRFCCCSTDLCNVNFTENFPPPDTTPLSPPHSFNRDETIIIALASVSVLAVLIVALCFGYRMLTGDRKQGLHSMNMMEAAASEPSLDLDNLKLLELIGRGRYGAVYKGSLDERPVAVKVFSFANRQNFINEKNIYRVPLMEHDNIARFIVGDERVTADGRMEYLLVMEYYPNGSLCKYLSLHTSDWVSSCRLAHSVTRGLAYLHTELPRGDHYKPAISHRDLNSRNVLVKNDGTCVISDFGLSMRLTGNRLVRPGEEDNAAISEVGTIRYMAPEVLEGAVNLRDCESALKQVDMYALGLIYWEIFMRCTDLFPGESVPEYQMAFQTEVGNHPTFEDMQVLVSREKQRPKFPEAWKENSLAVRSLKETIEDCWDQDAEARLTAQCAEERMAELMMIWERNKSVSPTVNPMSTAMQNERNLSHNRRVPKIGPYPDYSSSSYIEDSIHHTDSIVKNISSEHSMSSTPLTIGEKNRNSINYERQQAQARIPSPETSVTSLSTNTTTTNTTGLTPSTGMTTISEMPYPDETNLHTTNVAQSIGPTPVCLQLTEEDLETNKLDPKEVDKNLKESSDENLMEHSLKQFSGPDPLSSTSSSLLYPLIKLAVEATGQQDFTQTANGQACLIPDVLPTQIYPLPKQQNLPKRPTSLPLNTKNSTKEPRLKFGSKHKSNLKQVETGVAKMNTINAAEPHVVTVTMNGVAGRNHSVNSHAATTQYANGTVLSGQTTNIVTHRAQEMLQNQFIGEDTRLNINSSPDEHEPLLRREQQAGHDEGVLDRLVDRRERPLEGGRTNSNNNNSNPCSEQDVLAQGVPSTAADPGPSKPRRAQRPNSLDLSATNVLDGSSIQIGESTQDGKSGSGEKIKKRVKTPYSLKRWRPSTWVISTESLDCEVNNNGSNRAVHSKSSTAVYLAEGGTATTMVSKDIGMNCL", "outline": "as §1"}, "SGK(h)": {"target": "T3, SGK(h) (Homo sapiens, UniProt O00141)", "T3 construct": "gene SGK1", "outline": "as §1"}, "Ron(h)": {"target": "T4, Ron(h) (Homo sapiens, UniProt Q04912)", "T4 construct": "gene MST1R", "outline": "as §1"}, "SNRK(h)": {"target": "SNRK(h) (Homo sapiens, UniProt Q9NRH2)", "outline": "as §1"}, "MEK1(h)": {"target": "T5, MEK1(h) (Homo sapiens, UniProt Q02750)", "T5 construct": "gene MAP2K1", "outline": "as §1"}, "BIKe(h)": {"target": "T6, BIKe(h) (Homo sapiens, UniProt Q9NSY1)", "T6 construct": "gene BMP2K", "outline": "as §1"}, "CDK18/cyclinY(h)": {"target": "CDK18/cyclinY(h) (Homo sapiens, UniProt Q07002)", "outline": "as §1"}, "NIM1(h)": {"target": "T7, NIM1(h) (Homo sapiens, UniProt Q8IY84)", "T7 construct": "gene NIM1K", "outline": "as §1"}, "Yes(h)": {"target": "T8, Yes(h) (Homo sapiens, UniProt P07947)", "T8 construct": "gene YES1", "outline": "as §1"}, "CaMKIIδ(h)": {"target": "T9, CaMKIIδ(h) (Homo sapiens, UniProt Q13557)", "T9 construct": "gene CAMK2D", "outline": "as §1"}, "WNK3(h)": {"target": "WNK3(h) (Homo sapiens, UniProt Q9BYP7)", "outline": "as §1"}, "cKit(h)": {"target": "T10, cKit(h) (Homo sapiens, UniProt P10721)", "T10 construct": "gene KIT", "outline": "as §1"}, "[1]": {"target": "T11, PI3 Kinase (p110(H1047R)/p85)(h) (Homo sapiens, UniProt P42336, H1047R)", "T11 construct": "gene PIK3CA", "outline": "as §1"}, "AMPKα2(h)": {"target": "T12, AMPKα2(h) (Homo sapiens, UniProt P54646)", "T12 construct": "gene PRKAA2", "T12 sequence (P54646 whole entry)": "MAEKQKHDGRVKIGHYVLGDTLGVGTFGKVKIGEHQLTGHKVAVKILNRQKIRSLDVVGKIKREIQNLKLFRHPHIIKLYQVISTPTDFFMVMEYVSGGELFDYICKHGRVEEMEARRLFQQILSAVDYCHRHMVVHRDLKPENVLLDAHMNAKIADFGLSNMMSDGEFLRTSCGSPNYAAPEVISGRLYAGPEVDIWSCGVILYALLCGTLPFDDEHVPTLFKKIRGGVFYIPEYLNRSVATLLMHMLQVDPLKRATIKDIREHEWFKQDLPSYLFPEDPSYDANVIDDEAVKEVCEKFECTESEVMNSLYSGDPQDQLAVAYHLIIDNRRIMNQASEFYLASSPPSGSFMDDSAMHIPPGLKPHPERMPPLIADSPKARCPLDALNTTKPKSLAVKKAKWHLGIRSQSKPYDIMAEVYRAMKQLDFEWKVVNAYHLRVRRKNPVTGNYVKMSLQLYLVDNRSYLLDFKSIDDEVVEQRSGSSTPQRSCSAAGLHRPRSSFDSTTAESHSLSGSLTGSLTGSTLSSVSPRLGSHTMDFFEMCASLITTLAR", "T12 sequence (P54619 whole entry partner)": "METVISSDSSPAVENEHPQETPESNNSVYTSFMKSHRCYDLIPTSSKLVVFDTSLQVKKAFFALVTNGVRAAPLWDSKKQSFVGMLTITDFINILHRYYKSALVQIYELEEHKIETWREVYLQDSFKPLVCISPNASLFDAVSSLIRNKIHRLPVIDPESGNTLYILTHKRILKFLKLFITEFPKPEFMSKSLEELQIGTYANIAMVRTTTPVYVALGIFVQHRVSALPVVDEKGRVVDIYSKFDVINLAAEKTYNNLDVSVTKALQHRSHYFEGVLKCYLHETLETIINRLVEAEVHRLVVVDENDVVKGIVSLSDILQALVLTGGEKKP", "T12 sequence (Q9Y478 whole entry partner)": "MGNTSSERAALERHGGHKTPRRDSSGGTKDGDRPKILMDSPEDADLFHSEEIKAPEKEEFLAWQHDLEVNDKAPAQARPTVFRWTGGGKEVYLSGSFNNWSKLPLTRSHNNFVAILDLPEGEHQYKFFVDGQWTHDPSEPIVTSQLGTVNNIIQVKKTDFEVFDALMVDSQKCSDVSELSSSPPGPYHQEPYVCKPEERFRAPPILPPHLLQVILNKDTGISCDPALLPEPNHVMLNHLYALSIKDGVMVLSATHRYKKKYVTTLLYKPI", "outline": "as §1"}, "HRI(h)": {"target": "T13, HRI(h) (Homo sapiens, UniProt Q9BQI3)", "T13 construct": "gene EIF2AK1", "T13 sequence (Q9BQI3 whole entry)": "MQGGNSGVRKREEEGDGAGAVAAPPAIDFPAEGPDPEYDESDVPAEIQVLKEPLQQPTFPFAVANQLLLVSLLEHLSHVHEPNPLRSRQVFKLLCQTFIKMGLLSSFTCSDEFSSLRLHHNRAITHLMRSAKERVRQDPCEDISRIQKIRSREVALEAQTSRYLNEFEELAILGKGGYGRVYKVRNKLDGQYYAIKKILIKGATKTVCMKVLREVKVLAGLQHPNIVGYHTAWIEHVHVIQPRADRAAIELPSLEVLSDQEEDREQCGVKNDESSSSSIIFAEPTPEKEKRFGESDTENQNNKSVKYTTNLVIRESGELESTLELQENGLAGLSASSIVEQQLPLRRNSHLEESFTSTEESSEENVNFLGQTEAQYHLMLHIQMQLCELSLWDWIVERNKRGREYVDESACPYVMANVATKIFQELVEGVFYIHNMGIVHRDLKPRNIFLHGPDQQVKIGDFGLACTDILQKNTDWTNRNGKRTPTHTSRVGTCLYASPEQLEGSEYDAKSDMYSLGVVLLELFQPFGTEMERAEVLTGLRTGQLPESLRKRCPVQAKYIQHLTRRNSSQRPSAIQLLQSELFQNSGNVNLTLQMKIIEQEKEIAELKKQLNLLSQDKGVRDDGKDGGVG", "outline": "as §1"}, "PAR-1Bα(h)": {"target": "T14, PAR-1Bα(h) (Homo sapiens, UniProt Q7KZI7)", "T14 construct": "gene MARK2", "outline": "as §1"}, "DYRK2(h)": {"target": "DYRK2(h) (Homo sapiens, UniProt Q92630)", "sequence (Q92630 whole entry)": "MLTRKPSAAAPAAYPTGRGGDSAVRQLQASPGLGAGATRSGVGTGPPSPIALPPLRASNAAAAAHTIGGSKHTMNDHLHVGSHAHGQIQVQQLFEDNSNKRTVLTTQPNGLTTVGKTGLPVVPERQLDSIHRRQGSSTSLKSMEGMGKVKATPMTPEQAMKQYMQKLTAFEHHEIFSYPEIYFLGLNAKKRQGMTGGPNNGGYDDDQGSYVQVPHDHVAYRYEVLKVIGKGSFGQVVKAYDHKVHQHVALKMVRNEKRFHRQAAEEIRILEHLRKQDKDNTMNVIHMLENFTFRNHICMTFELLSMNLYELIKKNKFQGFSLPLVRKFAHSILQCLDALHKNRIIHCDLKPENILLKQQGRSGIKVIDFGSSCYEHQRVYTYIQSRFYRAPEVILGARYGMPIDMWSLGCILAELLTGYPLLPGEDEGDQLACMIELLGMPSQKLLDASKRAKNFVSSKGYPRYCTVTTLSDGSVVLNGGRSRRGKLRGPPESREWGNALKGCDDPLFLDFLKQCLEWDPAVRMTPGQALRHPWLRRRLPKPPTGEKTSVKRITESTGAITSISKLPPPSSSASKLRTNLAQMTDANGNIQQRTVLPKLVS", "outline": "as §1"}, "MAPK1(h)": {"target": "T15, MAPK1(h) (Homo sapiens, UniProt P27361)", "T15 construct": "gene MAPK3", "T15 sequence (P27361 whole entry)": "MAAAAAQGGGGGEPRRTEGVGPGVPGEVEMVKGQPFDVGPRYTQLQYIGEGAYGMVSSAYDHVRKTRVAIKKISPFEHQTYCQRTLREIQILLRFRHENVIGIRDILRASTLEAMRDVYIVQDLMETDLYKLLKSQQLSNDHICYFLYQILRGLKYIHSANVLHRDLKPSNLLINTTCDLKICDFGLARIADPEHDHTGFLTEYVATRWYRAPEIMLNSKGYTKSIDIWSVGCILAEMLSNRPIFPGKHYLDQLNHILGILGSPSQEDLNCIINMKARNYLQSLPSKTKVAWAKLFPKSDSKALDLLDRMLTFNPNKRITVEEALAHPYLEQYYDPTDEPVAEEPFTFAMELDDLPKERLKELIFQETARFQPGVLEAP", "outline": "as §1"}, "SAPK3(h)": {"target": "T16, SAPK3(h) (Homo sapiens, UniProt P53778)", "T16 construct": "gene MAPK12", "T16 sequence (P53778 whole entry)": "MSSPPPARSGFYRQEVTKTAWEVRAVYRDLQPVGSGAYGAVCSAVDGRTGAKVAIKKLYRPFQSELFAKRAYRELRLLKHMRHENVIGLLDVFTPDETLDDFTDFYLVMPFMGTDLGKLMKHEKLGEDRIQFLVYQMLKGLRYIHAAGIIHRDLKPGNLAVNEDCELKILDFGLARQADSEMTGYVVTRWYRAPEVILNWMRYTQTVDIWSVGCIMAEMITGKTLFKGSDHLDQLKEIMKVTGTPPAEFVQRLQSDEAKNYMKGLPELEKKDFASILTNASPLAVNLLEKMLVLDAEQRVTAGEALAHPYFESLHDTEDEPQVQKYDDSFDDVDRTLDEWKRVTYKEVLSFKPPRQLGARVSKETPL", "outline": "as §1"}},
  "data": [
    {"compound": "C1=C(c2nc(-c3cnn(C4CCNCC4)c3)cn3cc(-c4ccccc4)nc23)CCOC1", "note": "[YL-939]", "values": [
      {"measurement": "remaining activity at 10 µM", "setting": "Rsk1(h)", "value": 94, "unit": "%"},
      {"measurement": "remaining activity at 10 µM", "setting": "CaMKK1(h)", "value": 91, "unit": "%"},
      {"measurement": "remaining activity at 10 µM", "setting": "DRAK2(h)", "value": 128, "unit": "%"},
      {"measurement": "remaining activity at 10 µM", "setting": "BMPR2(h)", "value": 99, "unit": "%"},
      {"measurement": "remaining activity at 10 µM", "setting": "SGK(h)", "value": 72, "unit": "%"},
      {"measurement": "remaining activity at 10 µM", "setting": "Ron(h)", "value": 99, "unit": "%"},
      {"measurement": "remaining activity at 10 µM", "setting": "SNRK(h)", "value": 100, "unit": "%"},
      {"measurement": "remaining activity at 10 µM", "setting": "MEK1(h)", "value": 109, "unit": "%"},
      {"measurement": "remaining activity at 10 µM", "setting": "BIKe(h)", "value": 115, "unit": "%"},
      {"measurement": "remaining activity at 10 µM", "setting": "CDK18/cyclinY(h)", "value": 97, "unit": "%"},
      {"measurement": "remaining activity at 10 µM", "setting": "NIM1(h)", "value": 85, "unit": "%"},
      {"measurement": "remaining activity at 10 µM", "setting": "Yes(h)", "value": 90, "unit": "%"},
      {"measurement": "remaining activity at 10 µM", "setting": "CaMKIIδ(h)", "value": 68, "unit": "%"},
      {"measurement": "remaining activity at 10 µM", "setting": "WNK3(h)", "value": 87, "unit": "%"},
      {"measurement": "remaining activity at 10 µM", "setting": "cKit(h)", "value": 81, "unit": "%"},
      {"measurement": "remaining activity at 10 µM", "setting": "[1]", "value": 99, "unit": "%"},
      {"measurement": "remaining activity at 10 µM", "setting": "AMPKα2(h)", "value": 100, "unit": "%"},
      {"measurement": "remaining activity at 10 µM", "setting": "HRI(h)", "value": 111, "unit": "%"},
      {"measurement": "remaining activity at 10 µM", "setting": "PAR-1Bα(h)", "value": 101, "unit": "%"},
      {"measurement": "remaining activity at 10 µM", "setting": "DYRK2(h)", "value": 93, "unit": "%"},
      {"measurement": "remaining activity at 10 µM", "setting": "MAPK1(h)", "value": 103, "unit": "%"},
      {"measurement": "remaining activity at 10 µM", "setting": "SAPK3(h)", "value": 75, "unit": "%"}
    ]}
  ]
}
